In PMC9954146, “Anti-Leukaemic Activity of Rilpivirine Is Mediated by Aurora A Kinase Inhibition” (Cancers, 2023):

Columns and labels:
Assay in all cases: Kinase panel
Assay type in all cases: biochemical
Details in all cases: read-out: % Residual Activity
NEK2(h) = target: T1, NEK2(h) (Homo sapiens, UniProt P51955)
T1 construct: purchased Eurofins (KinaseProfiler)
In short: (§1)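 Steps: profile rilpivirine against a broad kinase panel; determine IC50 by radioactive assay using ATP at the kinase-specific Km; convert IC50 to Ki by the Cheng–Prusoff relationship.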

TGFBR1(h) = target: T2, TGFBR1(h) (Homo sapiens, UniProt P36897)
T2 construct: purchased Eurofins (KinaseProfiler)
In short: as §1

PKA(h) = target: T3, PKA(h) (Homo sapiens, UniProt P17612)
T3 construct: purchased Eurofins (KinaseProfiler)
In short: as §1

PRP4(h) = target: T4, PRP4(h) (Homo sapiens, UniProt Q13523)
T4 construct: purchased Eurofins (KinaseProfiler)
In short: as §1

Arg(m) = target: T5, Arg(m) (Mus musculus, UniProt Q4JIM5)
T5 construct: purchased Eurofins (KinaseProfiler)
In short: as §1

DCAMKL3(h) = target: T6, DCAMKL3(h) (Homo sapiens, UniProt Q9C098)
T6 construct: purchased Eurofins (KinaseProfiler)
In short: as §1

GRK7(h) = target: T7, GRK7(h) (Homo sapiens, UniProt Q8WTQ7)
T7 construct: purchased Eurofins (KinaseProfiler)
In short: as §1

ATR/ATRIP(h) = target: T8, ATR/ATRIP(h) (Homo sapiens, UniProt Q13535)
T8 construct: purchased Eurofins (KinaseProfiler)
In short: as §1

MINK(h) = target: T9, MINK(h) (Homo sapiens, UniProt Q8N4C8)
T9 construct: purchased Eurofins (KinaseProfiler)
In short: as §1

SNRK(h) = target: T10, SNRK(h) (Homo sapiens, UniProt Q9NRH2)
T10 construct: purchased Eurofins (KinaseProfiler)
In short: as §1

TAO2(h) = target: T11, TAO2(h) (Homo sapiens, UniProt Q9UL54)
T11 construct: purchased Eurofins (KinaseProfiler)
In short: as §1

TTBK2(h) = target: T12, TTBK2(h) (Homo sapiens, UniProt Q6IQ55)
T12 construct: purchased Eurofins (KinaseProfiler)
In short: as §1

GSK3β(h) = target: T13, GSK3β(h) (Homo sapiens, UniProt P49841)
T13 construct: purchased Eurofins (KinaseProfiler)
In short: as §1

NEK6(h) = target: T14, NEK6(h) (Homo sapiens, UniProt Q9HC98)
T14 construct: purchased Eurofins (KinaseProfiler)
In short: as §1

A-Raf(h) = target: T15, A-Raf(h) (Homo sapiens, UniProt P10398)
T15 construct: purchased Eurofins (KinaseProfiler)
In short: as §1

PRK2(h) = target: T16, PRK2(h) (Homo sapiens, UniProt Q16513)
T16 construct: purchased Eurofins (KinaseProfiler)
In short: as §1

EGFR(h) = target: T17, EGFR(h) (Homo sapiens, UniProt P00533)
T17 construct: purchased Eurofins (KinaseProfiler)
In short: as §1

PIP5K1g(h) = PIP5K1g(h) (Homo sapiens, UniProt O60331)
In short: as §1

CHK2(I157T)(h) = target: T18, CHK2(I157T)(h) (Homo sapiens, UniProt O96017, I157T)
T18 construct: purchased Eurofins (KinaseProfiler)
In short: as §1

CDK2/cyclinE(h) = target: T19, CDK2/cyclinE(h) (Homo sapiens, UniProt P24941)
T19 construct: purchased Eurofins (KinaseProfiler)
In short: as §1

AAK1(h) = target: T20, AAK1(h) (Homo sapiens, UniProt Q2M2I8)
T20 construct: purchased Eurofins (KinaseProfiler)
In short: as §1

RIPK1(h) = target: T21, RIPK1(h) (Homo sapiens, UniProt Q13546)
T21 construct: purchased Eurofins (KinaseProfiler)
In short: as §1

CaMKK1(h) = target: T22, CaMKK1(h) (Homo sapiens, UniProt Q8N5S9)
T22 construct: purchased Eurofins (KinaseProfiler)
In short: as §1

ASK1(h) = target: T23, ASK1(h) (Homo sapiens, UniProt Q99683)
T23 construct: purchased Eurofins (KinaseProfiler)
In short: as §1

CDK18/cyclinY(h) = target: T24, CDK18/cyclinY(h) (Homo sapiens, UniProt Q07002)
T24 construct: purchased Eurofins (KinaseProfiler)
In short: as §1

PRAK(h) = target: T25, PRAK(h) (Homo sapiens, UniProt Q8IW41)
T25 construct: purchased Eurofins (KinaseProfiler)
In short: as §1

ROCK-I(h) = target: T26, ROCK-I(h) (Homo sapiens, UniProt Q13464)
T26 construct: purchased Eurofins (KinaseProfiler)
In short: as §1

JNK1α1(h) = target: T27, JNK1α1(h) (Homo sapiens, UniProt P45983)
T27 construct: purchased Eurofins (KinaseProfiler)
In short: as §1

ROCK-II(h) = target: T28, ROCK-II(h) (Homo sapiens, UniProt O75116)
T28 construct: purchased Eurofins (KinaseProfiler)
In short: as §1

Lck(h) = target: T29, Lck(h) (Homo sapiens, UniProt P06239)
T29 construct: purchased Eurofins (KinaseProfiler)
In short: as §1

MYLK2(h) = target: T30, MYLK2(h) (Homo sapiens, UniProt Q9H1R3)
T30 construct: purchased Eurofins (KinaseProfiler)
In short: as §1

MAPK2(m) = target: T31, MAPK2(m) (Mus musculus, UniProt P63085)
T31 construct: purchased Eurofins (KinaseProfiler)
In short: as §1

Tie2 (h) = target: T32, Tie2 (h) (Homo sapiens, UniProt Q02763)
T32 construct: purchased Eurofins (KinaseProfiler)
In short: as §1

PIP5K1a(h) = PIP5K1a(h) (Homo sapiens, UniProt Q99755)
In short: as §1

OSR1(h) = target: T33, OSR1(h) (Homo sapiens, UniProt O95747)
T33 construct: purchased Eurofins (KinaseProfiler)
In short: as §1

PKCγ(h) = target: T34, PKCγ(h) (Homo sapiens, UniProt P05129)
T34 construct: purchased Eurofins (KinaseProfiler)
In short: as §1

CDK4/cyclinD3(h) = target: T35, CDK4/cyclinD3(h) (Homo sapiens, UniProt P11802)
T35 construct: purchased Eurofins (KinaseProfiler)
In short: as §1

Rse(h) = target: T36, Rse(h) (Homo sapiens, UniProt Q06418)
T36 construct: purchased Eurofins (KinaseProfiler)
In short: as §1

Met(h) = target: T37, Met(h) (Homo sapiens, UniProt P08581)
T37 construct: purchased Eurofins (KinaseProfiler)
In short: as §1

T24 sequence (Q07002 whole entry): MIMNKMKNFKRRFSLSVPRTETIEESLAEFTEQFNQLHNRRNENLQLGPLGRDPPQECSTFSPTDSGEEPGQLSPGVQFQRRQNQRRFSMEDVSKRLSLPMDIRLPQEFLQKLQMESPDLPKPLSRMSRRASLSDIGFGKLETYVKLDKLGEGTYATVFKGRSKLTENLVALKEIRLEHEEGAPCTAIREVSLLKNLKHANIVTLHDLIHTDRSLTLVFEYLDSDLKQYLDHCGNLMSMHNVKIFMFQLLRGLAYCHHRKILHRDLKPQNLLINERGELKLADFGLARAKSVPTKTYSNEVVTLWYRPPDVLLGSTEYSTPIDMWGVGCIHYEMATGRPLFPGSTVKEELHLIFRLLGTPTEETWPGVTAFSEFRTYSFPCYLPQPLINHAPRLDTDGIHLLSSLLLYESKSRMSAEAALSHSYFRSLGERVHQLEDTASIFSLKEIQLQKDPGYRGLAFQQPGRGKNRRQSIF
T24 sequence (Q8ND76 whole entry partner): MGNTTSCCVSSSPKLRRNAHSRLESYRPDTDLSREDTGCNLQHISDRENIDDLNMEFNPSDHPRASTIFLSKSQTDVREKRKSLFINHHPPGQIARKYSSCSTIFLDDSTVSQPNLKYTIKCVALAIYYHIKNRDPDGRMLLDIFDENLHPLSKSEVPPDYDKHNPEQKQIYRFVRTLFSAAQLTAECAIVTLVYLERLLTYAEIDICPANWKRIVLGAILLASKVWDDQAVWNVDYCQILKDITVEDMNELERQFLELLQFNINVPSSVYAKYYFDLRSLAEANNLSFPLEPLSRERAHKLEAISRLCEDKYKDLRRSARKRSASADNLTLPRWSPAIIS
T11 sequence (Q9UL54 whole entry): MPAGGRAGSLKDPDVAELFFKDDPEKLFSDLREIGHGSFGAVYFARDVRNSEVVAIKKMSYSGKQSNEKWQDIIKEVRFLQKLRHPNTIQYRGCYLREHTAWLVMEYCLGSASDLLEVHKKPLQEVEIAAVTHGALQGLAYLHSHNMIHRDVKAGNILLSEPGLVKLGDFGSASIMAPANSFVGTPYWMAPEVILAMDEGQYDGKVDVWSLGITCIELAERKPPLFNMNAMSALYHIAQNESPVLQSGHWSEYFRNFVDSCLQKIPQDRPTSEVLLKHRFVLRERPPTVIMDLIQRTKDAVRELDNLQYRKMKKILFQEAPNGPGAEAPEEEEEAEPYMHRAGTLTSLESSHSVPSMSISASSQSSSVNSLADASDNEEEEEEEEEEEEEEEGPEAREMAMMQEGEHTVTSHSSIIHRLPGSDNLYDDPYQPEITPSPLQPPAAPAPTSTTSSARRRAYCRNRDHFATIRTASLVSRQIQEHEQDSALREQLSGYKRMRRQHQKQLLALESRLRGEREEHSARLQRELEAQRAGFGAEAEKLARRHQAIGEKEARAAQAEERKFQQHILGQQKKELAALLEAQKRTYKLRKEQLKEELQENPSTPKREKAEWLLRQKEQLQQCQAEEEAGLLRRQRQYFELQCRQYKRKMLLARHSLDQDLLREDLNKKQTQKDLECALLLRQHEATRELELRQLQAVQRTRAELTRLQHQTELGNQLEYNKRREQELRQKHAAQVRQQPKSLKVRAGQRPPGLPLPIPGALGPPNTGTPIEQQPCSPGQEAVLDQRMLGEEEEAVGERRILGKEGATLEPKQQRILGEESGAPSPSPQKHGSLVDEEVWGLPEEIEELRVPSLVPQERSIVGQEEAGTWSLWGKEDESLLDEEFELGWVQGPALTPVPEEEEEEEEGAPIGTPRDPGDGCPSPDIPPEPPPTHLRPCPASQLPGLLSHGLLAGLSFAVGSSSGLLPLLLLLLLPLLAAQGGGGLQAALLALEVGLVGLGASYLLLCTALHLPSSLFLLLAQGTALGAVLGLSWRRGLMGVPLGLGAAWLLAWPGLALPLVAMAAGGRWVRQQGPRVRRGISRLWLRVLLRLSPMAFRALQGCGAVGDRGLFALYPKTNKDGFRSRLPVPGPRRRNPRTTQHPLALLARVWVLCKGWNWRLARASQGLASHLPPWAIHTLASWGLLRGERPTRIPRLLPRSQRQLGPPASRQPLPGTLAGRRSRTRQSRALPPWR
Chain of PIP5K1a(h) (Q99755 whole entry): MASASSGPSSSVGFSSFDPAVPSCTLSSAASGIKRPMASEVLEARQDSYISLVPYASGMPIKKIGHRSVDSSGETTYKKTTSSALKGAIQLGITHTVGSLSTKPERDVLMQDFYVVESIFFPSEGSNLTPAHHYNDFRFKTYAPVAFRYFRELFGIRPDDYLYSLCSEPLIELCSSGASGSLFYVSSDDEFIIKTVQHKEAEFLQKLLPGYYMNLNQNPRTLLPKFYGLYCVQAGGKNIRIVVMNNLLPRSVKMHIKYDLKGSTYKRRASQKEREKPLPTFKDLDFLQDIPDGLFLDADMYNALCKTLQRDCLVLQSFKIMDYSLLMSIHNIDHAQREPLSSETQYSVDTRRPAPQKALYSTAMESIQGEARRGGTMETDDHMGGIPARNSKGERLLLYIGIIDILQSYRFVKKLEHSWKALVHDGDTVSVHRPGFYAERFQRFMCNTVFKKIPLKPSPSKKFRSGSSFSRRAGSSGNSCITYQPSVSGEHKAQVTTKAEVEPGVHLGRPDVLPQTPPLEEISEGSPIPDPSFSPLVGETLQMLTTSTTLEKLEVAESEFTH
T7 sequence (Q8WTQ7 whole entry): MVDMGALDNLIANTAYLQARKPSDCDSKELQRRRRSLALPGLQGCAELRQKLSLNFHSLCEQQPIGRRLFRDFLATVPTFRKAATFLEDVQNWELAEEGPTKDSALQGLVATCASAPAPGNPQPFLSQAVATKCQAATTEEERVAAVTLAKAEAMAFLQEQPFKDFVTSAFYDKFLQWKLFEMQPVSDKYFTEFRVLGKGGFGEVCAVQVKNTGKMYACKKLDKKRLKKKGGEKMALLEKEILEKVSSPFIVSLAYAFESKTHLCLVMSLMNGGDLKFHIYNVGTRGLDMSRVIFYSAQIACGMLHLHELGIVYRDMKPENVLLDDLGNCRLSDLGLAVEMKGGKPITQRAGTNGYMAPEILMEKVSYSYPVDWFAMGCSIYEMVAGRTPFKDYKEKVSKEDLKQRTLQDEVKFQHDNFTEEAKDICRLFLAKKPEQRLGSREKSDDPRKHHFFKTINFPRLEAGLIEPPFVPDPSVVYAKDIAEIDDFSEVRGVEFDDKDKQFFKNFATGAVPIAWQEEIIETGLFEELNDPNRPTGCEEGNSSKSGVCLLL
T23 sequence (Q99683 whole entry): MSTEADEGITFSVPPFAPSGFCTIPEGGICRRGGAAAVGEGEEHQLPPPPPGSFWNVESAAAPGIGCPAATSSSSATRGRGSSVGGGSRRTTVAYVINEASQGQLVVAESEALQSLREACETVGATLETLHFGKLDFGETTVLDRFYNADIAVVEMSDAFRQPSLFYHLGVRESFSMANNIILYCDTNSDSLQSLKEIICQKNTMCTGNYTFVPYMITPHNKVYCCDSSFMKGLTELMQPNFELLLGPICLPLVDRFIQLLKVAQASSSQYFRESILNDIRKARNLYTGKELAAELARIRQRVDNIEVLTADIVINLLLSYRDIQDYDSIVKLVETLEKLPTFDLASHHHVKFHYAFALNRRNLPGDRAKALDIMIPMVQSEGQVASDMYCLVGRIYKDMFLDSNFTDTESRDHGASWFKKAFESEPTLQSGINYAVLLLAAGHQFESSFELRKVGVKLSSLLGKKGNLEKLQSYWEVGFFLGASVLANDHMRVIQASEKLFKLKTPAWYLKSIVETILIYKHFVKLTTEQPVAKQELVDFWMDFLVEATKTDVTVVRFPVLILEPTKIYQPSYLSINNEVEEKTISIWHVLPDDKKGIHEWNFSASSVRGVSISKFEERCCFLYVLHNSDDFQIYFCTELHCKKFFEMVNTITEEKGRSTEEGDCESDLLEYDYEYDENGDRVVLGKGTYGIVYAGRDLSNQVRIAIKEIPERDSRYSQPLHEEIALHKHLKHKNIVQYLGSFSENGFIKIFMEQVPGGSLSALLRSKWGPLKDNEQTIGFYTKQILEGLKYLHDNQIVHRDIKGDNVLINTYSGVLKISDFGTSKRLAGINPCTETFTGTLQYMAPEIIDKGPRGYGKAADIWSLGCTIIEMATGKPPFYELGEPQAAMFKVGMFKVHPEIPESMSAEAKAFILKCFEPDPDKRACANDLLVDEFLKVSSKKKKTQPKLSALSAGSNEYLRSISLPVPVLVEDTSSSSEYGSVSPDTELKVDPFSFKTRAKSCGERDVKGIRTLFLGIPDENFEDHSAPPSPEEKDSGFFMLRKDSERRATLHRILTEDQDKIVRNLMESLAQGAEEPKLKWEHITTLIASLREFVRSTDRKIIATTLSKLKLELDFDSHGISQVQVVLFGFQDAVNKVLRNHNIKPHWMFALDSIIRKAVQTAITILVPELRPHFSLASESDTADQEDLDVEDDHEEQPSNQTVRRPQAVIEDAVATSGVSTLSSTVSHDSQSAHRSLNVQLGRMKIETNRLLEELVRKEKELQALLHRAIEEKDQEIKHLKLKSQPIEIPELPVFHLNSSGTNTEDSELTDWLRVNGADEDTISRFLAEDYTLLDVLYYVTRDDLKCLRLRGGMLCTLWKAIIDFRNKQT
T27 sequence (P45983 1-384 isoform P45983-2): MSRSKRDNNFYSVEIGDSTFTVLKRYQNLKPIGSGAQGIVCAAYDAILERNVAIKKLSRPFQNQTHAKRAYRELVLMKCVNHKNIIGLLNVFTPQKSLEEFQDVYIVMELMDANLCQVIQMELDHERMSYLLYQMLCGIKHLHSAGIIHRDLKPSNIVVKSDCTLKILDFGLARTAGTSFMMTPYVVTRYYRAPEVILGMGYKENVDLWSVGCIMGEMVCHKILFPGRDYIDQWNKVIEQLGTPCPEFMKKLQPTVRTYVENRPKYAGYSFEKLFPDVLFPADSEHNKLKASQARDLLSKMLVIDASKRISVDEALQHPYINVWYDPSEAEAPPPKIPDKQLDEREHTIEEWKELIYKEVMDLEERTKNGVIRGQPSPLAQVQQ

Cc1cc(/C=C/C#N)cc(C)c1Nc1ccnc(Nc2ccc(C#N)cc2)n1 [rilpivirine, (E)-4-((4-((4-(2-cyanoethenyl)-2,6-dimethylphenyl)amino)pyrimidin-2-yl)amino)benzonitrile]
remaining activity at 1 µM (NEK2(h)): 97% | remaining activity at 1 µM (TGFBR1(h)): 103% | remaining activity at 1 µM (PKA(h)): 93% | remaining activity at 1 µM (PRP4(h)): 113% | remaining activity at 1 µM (Arg(m)): 48% | remaining activity at 1 µM (DCAMKL3(h)): 95% | remaining activity at 1 µM (GRK7(h)): 70% | remaining activity at 1 µM (ATR/ATRIP(h)): 117% | remaining activity at 1 µM (MINK(h)): 80% | remaining activity at 1 µM (SNRK(h)): 104% | remaining activity at 1 µM (TAO2(h)): 59% | remaining activity at 1 µM (TTBK2(h)): 88% | remaining activity at 1 µM (GSK3β(h)): 84% | remaining activity at 1 µM (NEK6(h)): 94% | remaining activity at 1 µM (A-Raf(h)): 101% | remaining activity at 1 µM (PRK2(h)): 74% | remaining activity at 1 µM (EGFR(h)): 111% | remaining activity at 1 µM (PIP5K1g(h)): 76% | remaining activity at 1 µM (CHK2(I157T)(h)): 97% | remaining activity at 1 µM (CDK2/cyclinE(h)): 92% | remaining activity at 1 µM (AAK1(h)): 87% | remaining activity at 1 µM (RIPK1(h)): 91% | remaining activity at 1 µM (CaMKK1(h)): 90% | remaining activity at 1 µM (ASK1(h)): 92% | remaining activity at 1 µM (CDK18/cyclinY(h)): 93% | remaining activity at 1 µM (PRAK(h)): 100% | remaining activity at 1 µM (ROCK-I(h)): 95% | remaining activity at 1 µM (JNK1α1(h)): 90% | remaining activity at 1 µM (ROCK-II(h)): 98% | remaining activity at 1 µM (Lck(h)): 33% | remaining activity at 1 µM (MYLK2(h)): 79% | remaining activity at 1 µM (MAPK2(m)): 92% | remaining activity at 1 µM (Tie2 (h)): 93% | remaining activity at 1 µM (PIP5K1a(h)): 96% | remaining activity at 1 µM (OSR1(h)): 102% | remaining activity at 1 µM (PKCγ(h)): 103% | remaining activity at 1 µM (CDK4/cyclinD3(h)): 101% | remaining activity at 1 µM (Rse(h)): 66% | remaining activity at 1 µM (Met(h)): 80%
